Reference: BigSolDB 2.1

C=C(C)[C@@H]1CC[C@]2(C(=O)O)CC[C@]3(C)[C@H](CC[C@@H]4[C@@]5(C)CCC(=O)C(C)(C)[C@@H]5CC[C@]43C)[C@@H]12
solubility (mole fraction)
Conditions | 278.15 K | 283.15 K | 288.15 K | 293.15 K | 298.15 K | 303.15 K | 308.15 K | 313.15 K | 318.15 K
in 2-methoxyethanol | 0.00863 | 0.00923 | 0.00969 | 0.0103 | 0.0108 | 0.0117 | 0.0127 | 0.0137 | 0.0149
in 2-propoxyethanol | 0.0239 | 0.0248 | 0.025 | 0.0264 | 0.0274 | 0.0288 | 0.03 | 0.0314 | 0.0331
in ethanol | 0.00376 | 0.00399 | 0.00454 | 0.00503 | 0.00566 | 0.00617 | 0.00693 | 0.00757 | 0.00848
in isopropanol | 0.00531 | 0.00564 | 0.00651 | 0.0075 | 0.00865 | 0.00968 | 0.0114 | 0.0138 | 0.0158
in methanol | 0.00129 | 0.00136 | 0.00146 | 0.00157 | 0.00171 | 0.00192 | 0.00211 | 0.00234 | 0.0027
in n-propanol | 0.00728 | 0.00762 | 0.00827 | 0.00914 | 0.0104 | 0.0116 | 0.0131 | 0.0144 | 0.0163
